Test results: ChEMBL document CHEMBL6134884, “Identification of JNJ-61803534, a RORγt Inverse Agonist for the Treatment of Psoriasis” (J Med Chem, 2025); call rule not given here
Values after ≈ are worked out from the molar mass of the structure shown.

Experiments:
[1] = molecular target: T1, Nuclear receptor ROR-gamma (Homo sapiens, UniProt P51449); experiment: Inverse agonist activity at RORgammat in human whole blood assessed as IL-17A production incubated for 1 hrs by ELISA analysis; type: tissue-based
T1 sequence (P51449 whole entry): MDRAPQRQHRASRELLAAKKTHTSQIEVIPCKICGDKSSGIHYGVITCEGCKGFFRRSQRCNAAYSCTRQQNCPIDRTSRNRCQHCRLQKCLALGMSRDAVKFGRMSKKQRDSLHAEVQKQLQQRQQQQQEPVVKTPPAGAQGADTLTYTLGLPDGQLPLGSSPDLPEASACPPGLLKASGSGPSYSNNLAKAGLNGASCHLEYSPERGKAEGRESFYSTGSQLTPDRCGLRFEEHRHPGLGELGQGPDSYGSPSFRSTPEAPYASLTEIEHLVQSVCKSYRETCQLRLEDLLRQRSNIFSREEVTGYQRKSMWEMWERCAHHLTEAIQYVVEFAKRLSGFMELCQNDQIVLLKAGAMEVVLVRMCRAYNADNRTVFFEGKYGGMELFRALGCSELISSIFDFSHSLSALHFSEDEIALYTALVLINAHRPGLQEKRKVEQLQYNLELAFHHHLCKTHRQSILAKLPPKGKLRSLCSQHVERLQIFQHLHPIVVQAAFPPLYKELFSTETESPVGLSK

[2] = Aqueous solubility of the compound at pH 2; type: physicochemical; conditions: aqueous solution
[3] = Aqueous solubility of the compound at pH 7; type: physicochemical; conditions: aqueous solution
[4] = molecular target: T2, Nuclear receptor subfamily 1 group I member 2 (Homo sapiens, UniProt O75469); experiment: Activation of human PXR at 1 uM relative to control; type: toxicity
T2 sequence (O75469 whole entry): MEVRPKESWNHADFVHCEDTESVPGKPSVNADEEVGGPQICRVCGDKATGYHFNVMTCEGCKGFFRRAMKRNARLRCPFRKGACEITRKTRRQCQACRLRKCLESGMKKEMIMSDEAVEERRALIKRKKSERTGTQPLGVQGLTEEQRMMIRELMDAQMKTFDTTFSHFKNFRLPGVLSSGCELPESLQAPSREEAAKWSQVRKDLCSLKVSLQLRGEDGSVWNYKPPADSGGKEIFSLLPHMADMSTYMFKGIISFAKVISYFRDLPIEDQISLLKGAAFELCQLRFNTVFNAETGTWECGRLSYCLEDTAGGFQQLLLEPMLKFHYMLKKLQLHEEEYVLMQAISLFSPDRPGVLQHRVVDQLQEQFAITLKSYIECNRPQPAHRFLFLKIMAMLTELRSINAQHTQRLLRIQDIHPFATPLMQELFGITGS

[5] = molecular target: T3, Nuclear receptor ROR-beta (Homo sapiens, UniProt Q92753); experiment: Inverse agonist activity at human RORbeta assessed as dissociation constant by thermofluor assay
T3 sequence (Q92753 whole entry): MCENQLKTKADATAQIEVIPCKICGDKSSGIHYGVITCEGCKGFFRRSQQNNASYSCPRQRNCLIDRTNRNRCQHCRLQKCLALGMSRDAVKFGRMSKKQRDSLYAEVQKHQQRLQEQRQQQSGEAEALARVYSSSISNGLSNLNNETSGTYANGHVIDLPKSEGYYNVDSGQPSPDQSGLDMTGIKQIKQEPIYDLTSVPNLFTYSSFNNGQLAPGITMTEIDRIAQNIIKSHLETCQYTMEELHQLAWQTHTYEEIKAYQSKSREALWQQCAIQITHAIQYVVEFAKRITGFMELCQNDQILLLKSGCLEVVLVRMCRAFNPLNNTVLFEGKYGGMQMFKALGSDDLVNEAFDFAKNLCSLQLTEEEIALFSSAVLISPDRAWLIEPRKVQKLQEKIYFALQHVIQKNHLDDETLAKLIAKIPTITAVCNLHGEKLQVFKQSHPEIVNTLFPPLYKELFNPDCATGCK

[6] = molecular target: T4, PXR (Homo sapiens, UniProt O75469); experiment: Activation of human PXR at 5 uM relative to control; type: toxicity; conditions: read-out: Activity
T4 sequence (O75469 whole entry): T2 sequence (O75469 whole entry)

[7] = Solubility of compound in FaSSIF; type: physicochemical
[8] = molecular target: T4, PXR; experiment: Activation of human PXR at 10 uM relative to control; type: toxicity; conditions: read-out: Activity
[9] = Solubility of compound in SGF; type: physicochemical
[10] = molecular target: T1, Nuclear receptor ROR-gamma; experiment: Inverse agonist activity at N-terminal his-tagged wild type human RORgammat LBD domain expressed in Escherichia coli assessed as dissociation constant by thermofluor assay
[11] = molecular target: Cytochrome P450 3A4 (Homo sapiens, UniProt P08684); experiment: Induction of CYP3A4 in human hepatocytes at 10 uM relative to control; type: ADME, cell-based, Hepatocyte
Cytochrome P450 3A4, sequence (P08684 whole entry): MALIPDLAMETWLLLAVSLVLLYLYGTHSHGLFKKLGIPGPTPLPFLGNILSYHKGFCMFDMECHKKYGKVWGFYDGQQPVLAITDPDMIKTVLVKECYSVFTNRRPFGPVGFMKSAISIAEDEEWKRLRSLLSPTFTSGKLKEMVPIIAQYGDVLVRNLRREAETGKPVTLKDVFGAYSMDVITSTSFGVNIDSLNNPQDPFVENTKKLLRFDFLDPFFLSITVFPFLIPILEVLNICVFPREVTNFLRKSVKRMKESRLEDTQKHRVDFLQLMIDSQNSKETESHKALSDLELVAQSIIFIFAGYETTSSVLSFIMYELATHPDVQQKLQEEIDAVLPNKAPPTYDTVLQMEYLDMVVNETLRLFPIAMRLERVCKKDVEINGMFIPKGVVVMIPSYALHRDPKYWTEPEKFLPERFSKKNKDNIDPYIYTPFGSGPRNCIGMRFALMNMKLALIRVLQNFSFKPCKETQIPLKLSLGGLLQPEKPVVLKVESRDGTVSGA

[12] = Cmax in male Sprague-Dawley rat at 1 mg/kg, iv or 5 mg/kg, po measured 24 hrs post dose by LC-MS/MS analysis; type: ADME, organism-based; conditions: in vivo
[13] = molecular target: T1, Nuclear receptor ROR-gamma; experiment: Inverse agonist activity at human RORgammat by mammalian 1-hybrid assay
[14] = Drug uptake in male rat plasma at 50 mg/kg, po after 5 days; type: ADME, organism-based; conditions: in vivo, 120 h, time 5 day

SMILES	IC50 [1] [nM]	solubility [2] [µM]	solubility [3] [µM]	Activity [4] [%]	Kd [5] [nM]	activity at 5 µM [6] [%]	solubility [7] [µM]	activity at 10 µM [8] [%]	solubility [9] [µM]	Kd [10] [nM]	Activity [11] [%]	Cmax [12] [µM]	IC50 [13] [nM]	Drug uptake [14]
CC(C)(O)CNC(=O)c1nc(C(=O)N2CCC(F)CC2)c(-c2ccc(C(O)(C(F)(F)F)C(F)(F)F)c(Cl)c2Cl)s1	890	< 4	< 4	1.5	1900	14								
C[C@H]1C[C@@H](F)CCN1C(=O)c1nc(C(=O)NCC(C)(C)O)sc1-c1ccc(C(O)(C(F)(F)F)C(F)(F)F)c(Cl)c1Cl	210	< 4	< 4	14	1000	40								
C[C@H]1CCCCN1C(=O)c1nc(C(=O)NCC(C)(C)O)sc1-c1ccc(C(O)(C(F)(F)F)C(F)(F)F)cc1Cl	81	< 4	< 4	13	430		77 (≈ 46.4 µg/mL)	25	< 4	0.058				
C[C@H]1CCCN1C(=O)c1nc(C(=O)NCC(C)(C)O)sc1-c1ccc(C(O)(C(F)(F)F)C(F)(F)F)cc1Cl	240	6.3 (≈ 3.7 µg/mL)	< 4	3.6	4900		130 (≈ 76.4 µg/mL)	27	6.3 (≈ 3.7 µg/mL)	0.63	11			
Cc1cc(C(O)(C(F)(F)F)C(F)(F)F)ccc1-c1sc(C(=O)NCC(C)(C)O)nc1C(=O)N1CCCC[C@@H]1C	160	< 4	< 4	8	1400		4.6 (≈ 2.68 µg/mL)	24	< 4	0.25	10			
CCN(CC)C(=O)c1nc(C(=O)N2C[C@H](O)C[C@H](O)C2)sc1-c1ccc(C(O)(C(F)(F)F)C(F)(F)F)c(Cl)c1Cl	190	52 (≈ 33.2 µg/mL)	41 (≈ 26.2 µg/mL)	2.7	13000	4.7						0.1		
C[C@H](NS(=O)(=O)c1ccc(-c2sc(C(=O)NCC(C)(C)O)nc2C(=O)N2CCC(F)CC2)c(Cl)c1Cl)C(F)(F)F				13										
Cc1c(S(N)(=O)=O)cc(-c2ccc(S(=O)(=O)NC(C)(C)C)cc2)n1CC1CCCCC1													1780	
Cc1cc(C(O)(C(F)(F)F)C(F)(F)F)ccc1-c1sc(C(=O)NCC(C)(C)O)nc1C(=O)N1CCC[C@@H]1C	530	35 (≈ 19.9 µg/mL)	86 (≈ 48.8 µg/mL)	12	15000		250 (≈ 142 µg/mL)	31	63 (≈ 35.8 µg/mL)		16			
C[C@H]1CCCCN1C(=O)c1nc(C(=O)NCC(C)(C)O)sc1-c1ccc(C(O)(C(F)(F)F)C(F)(F)F)cc1C(F)F		< 4	< 4	28	850		14 (≈ 8.65 µg/mL)	84	< 4					
Cc1c(C(N)=O)cc(-c2ccc(C(O)(C(F)(F)F)C(F)(F)F)cc2)n1CC1CCCCC1													1700	
CCN(C(=O)c1nc(C(=O)NCC(C)(C)O)sc1-c1ccc(C(O)(C(F)(F)F)C(F)(F)F)c(Cl)c1Cl)C1CCC1				10	1100	21				0.2				
CCN(CC)C(=O)c1nc(C(=O)NCC(C)(C)O)sc1-c1ccc(C(O)(C(F)(F)F)C(F)(F)F)c(Cl)c1Cl		< 4	< 4	32	3500	76					16			Active
C[C@H]1CCCN1C(=O)c1nc(C(=O)NCC(C)(C)O)sc1-c1ccc(C(O)(C(F)(F)F)C(F)(F)F)cc1C(F)F		12 (≈ 7.24 µg/mL)	13 (≈ 7.85 µg/mL)	27	13000		99 (≈ 59.7 µg/mL)	74	22 (≈ 13.3 µg/mL)		33			
C[C@H]1CC(F)(F)CN1C(=O)c1nc(C(=O)NCC(C)(C)O)sc1-c1ccc(C(O)(C(F)(F)F)C(F)(F)F)c(Cl)c1Cl	120	< 4	< 4	27	2300	50								
CN(C(=O)c1nc(C(=O)NCC(C)(C)O)sc1-c1ccc(C(O)(C(F)(F)F)C(F)(F)F)c(Cl)c1Cl)C1CCC1				1.9	2300	9.1				0.4			9.4	
